Laboratory results as given in patent publication US9266892B2, “Fused pyrazoles as FGFR inhibitors” (Incyte Corporation, priority 2012, dated 2016).

How the values were obtained:
Assay type in all cases: biochemical
FGFR1 = target: T1, FGFR1 (Homo sapiens, UniProt P11362); assay: FGFR Enzymatic Assay (FRET peptide phosphorylation), FGFR1; details: FGFR1 0.02 nM, ATP 210 μM
T1 construct: purchased Millipore or Invitrogen
Method: (§1) The inhibitor potency of the Example compounds was measured in an enzyme assay that measures peptide phosphorylation using FRET measurements to detect product formation. Inhibitors were serially diluted in DMSO and a volume of 0.5 μL was transferred to the wells of a 384-well plate. For FGFR3, a 10 μL volume of FGFR3 enzyme (Millipore) diluted in assay buffer (50 mM HEPES, 10 mM MgCl2, 1 mM EGTA, 0.01% Tween-20, 5 mM DTT, pH 7.5) was added to the plate and pre-incubated for 5-10 minutes. Appropriate controls (enzyme blank and enzyme with no inhibitor) were included on the plate. The assay was initiated by the addition of a 10 μL solution containing biotinylated EQEDEPEGDYFEWLE peptide substrate (SEQ ID NO: 1) and ATP (final concentrations of 500 nM and 140 μM respectively) in assay buffer to the wells. The plate was incubated at 25° C. for 1 hr. The reactions were ended with the addition of 10 μL/well of quench solution (50 mM Tris, 150 mM NaCl, 0.5 mg/mL BSA, pH˜7.8, 30 mM EDTA with Perkin Elmer Lance Detection Reagents at 3.75 nM Eu-antibody PY20 and 180 nM APC-Streptavidin). The plate was allowed to equilibrate for 1 hour before scanning the wells on a PheraStar plate reader (BMG Labtech). The enzymes were purchased from Millipore or Invitrogen.
(§2) FGFR1 and FGFR2 were measured under equivalent conditions with the following changes in enzyme and ATP concentrations: FGFR1, 0.02 nM and 210 μM, respectively and FGFR2, 0.01 nM and 100 μM, respectively.
(§3) GraphPad prism3 was used to analyze the data. The IC50 values were derived by fitting the data to the equation for a sigmoidal dose-response with a variable slope. Y=Bottom+(Top−Bottom)/(1+10^((Log IC50−X)*HillSlope)) where X is the logarithm of concentration and Y is the response.

FGFR3 = target: T2, FGFR3 (Homo sapiens, UniProt P22607); assay: FGFR Enzymatic Assay (FRET peptide phosphorylation), FGFR3; details: ATP 140 μM, 25° C. for 1 hr
T2 construct: purchased Millipore
T2 sequence (P22607 23-806): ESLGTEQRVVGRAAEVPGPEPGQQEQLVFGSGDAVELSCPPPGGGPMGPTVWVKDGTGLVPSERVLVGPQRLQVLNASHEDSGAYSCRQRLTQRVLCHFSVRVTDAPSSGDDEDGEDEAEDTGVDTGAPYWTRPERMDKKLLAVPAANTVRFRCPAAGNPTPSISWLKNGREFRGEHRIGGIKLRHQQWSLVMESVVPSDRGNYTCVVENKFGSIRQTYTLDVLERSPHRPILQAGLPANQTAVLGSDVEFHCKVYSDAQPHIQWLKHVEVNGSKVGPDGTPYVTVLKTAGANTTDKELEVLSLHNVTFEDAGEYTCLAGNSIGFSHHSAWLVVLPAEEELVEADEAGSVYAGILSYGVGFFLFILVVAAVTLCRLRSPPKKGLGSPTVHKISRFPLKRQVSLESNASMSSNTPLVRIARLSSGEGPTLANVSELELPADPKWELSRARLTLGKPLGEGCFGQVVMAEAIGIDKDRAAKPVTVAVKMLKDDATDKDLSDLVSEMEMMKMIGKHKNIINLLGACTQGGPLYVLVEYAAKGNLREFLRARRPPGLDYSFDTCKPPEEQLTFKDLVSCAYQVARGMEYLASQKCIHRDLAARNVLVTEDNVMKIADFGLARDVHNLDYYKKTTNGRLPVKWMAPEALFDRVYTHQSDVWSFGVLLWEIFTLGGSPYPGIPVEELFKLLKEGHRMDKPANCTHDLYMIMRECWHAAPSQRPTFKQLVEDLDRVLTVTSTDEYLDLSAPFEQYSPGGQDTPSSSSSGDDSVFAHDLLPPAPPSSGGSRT
Method: as §1, §3

FGFR2 = target: T3, FGFR2 (Homo sapiens, UniProt P21802); assay: FGFR Enzymatic Assay (FRET peptide phosphorylation), FGFR2; details: FGFR2 0.01 nM, ATP 100 μM
T3 construct: purchased Millipore or Invitrogen
T3 sequence (P21802 22-821): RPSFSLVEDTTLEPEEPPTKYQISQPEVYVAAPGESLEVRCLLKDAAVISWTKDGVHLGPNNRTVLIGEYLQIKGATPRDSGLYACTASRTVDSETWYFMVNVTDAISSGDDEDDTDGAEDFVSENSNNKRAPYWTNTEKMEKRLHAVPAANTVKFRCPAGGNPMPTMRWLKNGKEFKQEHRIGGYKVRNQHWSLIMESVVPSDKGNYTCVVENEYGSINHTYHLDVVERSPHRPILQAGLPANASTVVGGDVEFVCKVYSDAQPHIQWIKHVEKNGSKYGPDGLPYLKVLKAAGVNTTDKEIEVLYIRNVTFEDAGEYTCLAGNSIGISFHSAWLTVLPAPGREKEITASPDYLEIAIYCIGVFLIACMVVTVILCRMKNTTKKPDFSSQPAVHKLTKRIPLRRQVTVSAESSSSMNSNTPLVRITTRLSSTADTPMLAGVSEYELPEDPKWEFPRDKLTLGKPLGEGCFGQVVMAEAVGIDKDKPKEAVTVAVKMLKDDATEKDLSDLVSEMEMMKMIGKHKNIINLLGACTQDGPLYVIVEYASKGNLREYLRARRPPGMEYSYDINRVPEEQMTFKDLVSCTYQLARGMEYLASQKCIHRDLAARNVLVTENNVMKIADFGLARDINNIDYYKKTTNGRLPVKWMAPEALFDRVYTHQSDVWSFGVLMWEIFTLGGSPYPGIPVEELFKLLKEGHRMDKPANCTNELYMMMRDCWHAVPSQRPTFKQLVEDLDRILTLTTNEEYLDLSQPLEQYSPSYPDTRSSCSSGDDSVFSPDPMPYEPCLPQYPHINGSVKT
Method: as §1, §2, §3

Measured: IC50

T1 sequence (P11362 22-822): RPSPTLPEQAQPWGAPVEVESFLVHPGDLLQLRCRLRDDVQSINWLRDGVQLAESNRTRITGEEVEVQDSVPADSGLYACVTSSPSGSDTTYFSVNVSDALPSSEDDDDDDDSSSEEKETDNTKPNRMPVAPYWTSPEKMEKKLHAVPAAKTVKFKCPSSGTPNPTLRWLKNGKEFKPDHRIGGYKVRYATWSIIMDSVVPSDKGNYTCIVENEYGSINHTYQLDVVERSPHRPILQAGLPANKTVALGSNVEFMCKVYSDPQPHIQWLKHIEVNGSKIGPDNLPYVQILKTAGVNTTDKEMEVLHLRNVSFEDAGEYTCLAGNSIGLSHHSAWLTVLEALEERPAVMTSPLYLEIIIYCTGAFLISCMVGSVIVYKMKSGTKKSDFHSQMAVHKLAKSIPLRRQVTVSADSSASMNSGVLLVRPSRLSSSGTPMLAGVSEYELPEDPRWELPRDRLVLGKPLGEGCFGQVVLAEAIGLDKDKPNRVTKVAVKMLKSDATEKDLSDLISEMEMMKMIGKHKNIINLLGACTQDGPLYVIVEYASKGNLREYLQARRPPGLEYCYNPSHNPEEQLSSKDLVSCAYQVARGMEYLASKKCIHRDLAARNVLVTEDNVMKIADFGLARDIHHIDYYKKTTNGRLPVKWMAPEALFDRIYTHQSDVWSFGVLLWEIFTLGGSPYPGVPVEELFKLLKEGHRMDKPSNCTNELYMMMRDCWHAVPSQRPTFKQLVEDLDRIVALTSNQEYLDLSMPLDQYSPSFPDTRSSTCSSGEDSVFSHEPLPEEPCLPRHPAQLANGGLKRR

COc1cc(OC)c(Cl)c(-c2ncc3c(-c4ccc5c(c4)CCN(C(C)C)C5=O)n[nH]c3n2)c1Cl [Example 11, 6-[6-(2,6-Dichloro-3,5-dimethoxyphenyl)-1H-pyrazolo[3,4-d]pyrimidin-3-yl]-2-isopropyl-3,4-dihydroisoquinolin-1(2H)-one]
< 100 nM: all assays above

COc1cc(OC)c(F)c(-c2ncc3c(-c4ccc5c(c4)CC(C(=O)N(C)C)O5)n[nH]c3n2)c1F (stereo not drawn) [Example 3, 5-[6-(2,6-Difluoro-3,5-dimethoxyphenyl)-1H-pyrazolo[3,4-d]pyrimidin-3-yl]-N,N-dimethyl-2,3-dihydro-1-benzofuran-2-carboxamide]
< 100 nM: all assays above

COc1cc(OC)c(F)c(-c2ncc3c(-c4ccc5c(c4)CCC(C(=O)N(C)C)O5)n[nH]c3n2)c1F (stereo not drawn) [Example 6, 6-[6-(2,6-Difluoro-3,5-dimethoxyphenyl)-1H-pyrazolo[3,4-d]pyrimidin-3-yl]-N,N-dimethylchromane-2-carboxamide]
< 100 nM: all assays above

COc1cc(OC)c(F)c(-c2cc3[nH]nc(-c4ccc5c(c4)CN(CCN(C)C)C5=O)c3cn2)c1F [Example 67, 5-[6-(2,6-Difluoro-3,5-dimethoxyphenyl)-1H-pyrazolo[4,3-c]pyridin-3-yl]-2-[2-(dimethylamino)ethyl]isoindolin-1-one]
< 100 nM: all assays above

CCN1Cc2cc(-c3n[nH]c4cc(-c5c(F)c(OC)cc(OC)c5F)ncc34)cnc2C1=O [Example 55, 3-[6-(2,6-Difluoro-3,5-dimethoxyphenyl)-1H-pyrazolo[4,3-c]pyridin-3-yl]-6-ethyl-5,6-dihydro-7H-pyrrolo[3,4-b]pyridin-7-one]
< 100 nM: all assays above

COc1cc(OC)c(F)c(-c2cc3[nH]nc(-c4ccc5c(c4)CN([C@H]4CC[C@H](O)CC4)C5=O)c3cn2)c1F [Example 62, 5-[6-(2,6-Difluoro-3,5-dimethoxyphenyl)-1H-pyrazolo[4,3-c]pyridin-3-yl]-2-(trans-4-hydroxycyclohexyl)isoindolin-1-one]
< 100 nM: all assays above

COc1cc(OC)c(F)c(-c2ncc3c(-c4ccc5c(c4)CN([C@H]4CC[C@@H](O)CC4)C5=O)n[nH]c3n2)c1F [Example 16, 5-[6-(2,6-Difluoro-3,5-dimethoxyphenyl)-1H-pyrazolo[3,4-d]pyrimidin-3-yl]-2-(cis-4-hydroxycyclohexyl)isoindolin-1-one]
< 100 nM: all assays above

COc1cc(OC)c(F)c(-c2cc3[nH]nc(-c4ccc(N5CCN(C)CC5)nc4)c3cn2)c1F [Example 26, 6-(2,6-Difluoro-3,5-dimethoxyphenyl)-3-[6-(4-methylpiperazin-1-yl)pyridin-3-yl]-1H-pyrazolo[4,3-c]pyridine]
< 100 nM: all assays above

COc1cc(OC)c(F)c(-c2cc3[nH]nc(-c4ccc5c(c4)CN(C(C)CO)C5=O)c3cn2)c1F (stereo not drawn) [Example 63, 5-[6-(2,6-Difluoro-3,5-dimethoxyphenyl)-1H-pyrazolo[4,3-c]pyridin-3-yl]-2-(2-hydroxy-1-methylethyl)isoindolin-1-one]
< 100 nM: all assays above

COc1cc(OC)c(F)c(-c2ncc3c(-c4ccc(OCCN(C)C)cc4)n[nH]c3n2)c1F [Example 20, 2-{4-[6-(2,6-Difluoro-3,5-dimethoxyphenyl)-1H-pyrazolo[3,4-d]pyrimidin-3-yl]phenoxy}-N,N-dimethylethanamine]
< 100 nM: all assays above

COc1cc(OC)c(Cl)c(-c2cc3[nH]nc(-c4cnn(C)c4)c3cn2)c1Cl [Example 90, 6-(2,6-Dichloro-3,5-dimethoxyphenyl)-3-(1-methyl-1H-pyrazol-4-yl)-1H-pyrazolo[4,3-c]pyridine]
< 100 nM: all assays above

COc1cc(OC)c(F)c(-c2ncc3c(-c4cnn(C)c4)n[nH]c3n2)c1F [Example 87, 6-(2,6-Difluoro-3,5-dimethoxyphenyl)-3-(1-methyl-1H-pyrazol-4-yl)-1H-pyrazolo[3,4-d]pyrimidine]
< 100 nM: all assays above

COc1cc(OC)c(F)c(-c2ncc3c(-c4ccc5c(c4)CN(C4CCN(C)CC4)C5=O)n[nH]c3n2)c1F [Example 79, 5-[6-(2,6-Difluoro-3,5-dimethoxyphenyl)-1H-pyrazolo[3,4-d]pyrimidin-3-yl]-2-(1-methylpiperidin-4-yl)isoindolin-1-one]
< 100 nM: all assays above

COc1cc(OC)c(F)c(-c2cc3[nH]nc(-c4ccc5c(c4)CN(CCC4CCCN4C)C5=O)c3cn2)c1F (stereo not drawn) [Example 68, 5-[6-(2,6-Difluoro-3,5-dimethoxyphenyl)-1H-pyrazolo[4,3-c]pyridin-3-yl]-2-[2-(1-methylpyrrolidin-2-yl)ethyl]isoindolin-1-one]
< 100 nM: all assays above

COc1cc(OC)c(Cl)c(-c2ncc3c(-c4ccc5c(c4)CN(C4CC4)C5=O)n[nH]c3n2)c1Cl [Example 74, 2-Cyclopropyl-5-[6-(2,6-dichloro-3,5-dimethoxyphenyl)-1H-pyrazolo[3,4-d]pyrimidin-3-yl]isoindolin-1-one]
< 100 nM: all assays above

COc1cc(OC)c(Cl)c(-c2cc3[nH]nc(/C=C/c4cnn(C)c4)c3cn2)c1Cl [Example 49, 6-(2,6-Dichloro-3,5-dimethoxyphenyl)-3-[(E)-2-(1-methyl-1H-pyrazol-4-yl)vinyl]-1H-pyrazolo[4,3-c]pyridine]
< 100 nM: all assays above

COc1cc(OC)c(Cl)c(-c2cc3[nH]nc(-c4cnn(CC(=O)N5CCC(N(C)C)C5)c4)c3cn2)c1Cl (stereo not drawn) [Example 44, 1-({4-[6-(2,6-Dichloro-3,5-dimethoxyphenyl)-1H-pyrazolo[4,3-c]pyridin-3-yl]-1H-pyrazol-1-yl}acetyl)-N,N-dimethylpyrrolidin-3-amine]
< 100 nM: all assays above

COc1cc(OC)c(F)c(-c2ncc3c(-c4ccc5c(c4)CN(CC(C)O)C5=O)n[nH]c3n2)c1F (stereo not drawn) [Example 82, 5-[6-(2,6-Difluoro-3,5-dimethoxyphenyl)-1H-pyrazolo[3,4-d]pyrimidin-3-yl]-2-(2-hydroxypropyl)isoindolin-1-one]
< 100 nM: all assays above

COc1cc(OC)c(F)c(-c2ncc3c(-c4ccc(N5CCN(C)CC5)nc4)n[nH]c3n2)c1F [Example 18, 6-(2,6-Difluoro-3,5-dimethoxyphenyl)-3-[6-(4-methylpiperazin-1-yl)pyridin-3-yl]-1H-pyrazolo[3,4-d]pyrimidine]
< 100 nM: all assays above

COc1cc(OC)c(F)c(-c2cc3[nH]nc(-c4ccc5c(c4)CC(C(=O)N4CCN(C)CC4)O5)c3cn2)c1F (stereo not drawn) [Example 24, 6-(2,6-Difluoro-3,5-dimethoxyphenyl)-3-{2-[(4-methylpiperazin-1-yl)carbonyl]-2,3-dihydro-1-benzofuran-5-yl}-1H-pyrazolo[4,3-c]pyridine]
< 100 nM: all assays above

COc1cc(OC)c(Cl)c(-c2cc3[nH]nc(-c4cnn(CC(=O)NC5CCN(C)CC5)c4)c3cn2)c1Cl [Example 42, 2-{4-[6-(2,6-Dichloro-3,5-dimethoxyphenyl)-1H-pyrazolo[4,3-c]pyridin-3-yl]-1H-pyrazol-1-yl}-N-(1-methylpiperidin-4-yl)acetamide]
< 100 nM: all assays above

COc1cc(OC)c(Cl)c(-c2cc3[nH]nc(-c4cnn(CC(=O)N5CCC(C#N)C5)c4)c3cn2)c1Cl (stereo not drawn) [Example 47, 1-({4-[6-(2,6-Dichloro-3,5-dimethoxyphenyl)-1H-pyrazolo[4,3-c]pyridin-3-yl]-1H-pyrazol-1-yl}acetyl)pyrrolidine-3-carbonitrile]
< 100 nM: all assays above

COc1cc(OC)c(F)c(-c2ccc3c(-c4cnn(C)c4)n[nH]c3n2)c1F [Example 72, 6-(2,6-Difluoro-3,5-dimethoxyphenyl)-3-(1-methyl-1H-pyrazol-4-yl)-1H-pyrazolo[3,4-b]pyridine]
< 100 nM: all assays above
